In PMC3053071 (Bioorganic & medicinal chemistry letters, 2011):

Experiment: Cell toxicity
Format: cell-based

Structure (SMILES): C=C(C)[C@@H]1CC[C@]2(C(=O)O)CC[C@]3(C)[C@H](CC[C@@H]4[C@@]5(C)CC[C@H](OC(=O)CC(C)(C)C(=O)O)C(C)(C)[C@@H]5CC[C@]43C)[C@@H]12 [Bevirimat, 3-O-(3′,3′-dimethylsuccinyl)betulinic acid]
- IC50: > 300 µM
